For four compounds, T/C results are on record in PubChem BioAssay AID258 (DTP/NCI, 2004).

Molecules are shown by their SMILES. Several values for one entry are separate records, joined by “and”; a condition that tells them apart may be missing. Identical values can stand only once. Inconclusive results and toxic doses are left out.

In the experiment the test system is CD2F1 mice, L1210 leukemia sc, survival T/C. Put plainly: NCI In Vivo Anticancer Drug Screen. Data for tumor model L1210 Leukemia (subcutaneous) in CD2F1 (CDF1) mice. As to conditions: endpoint: median survival time, higher = longer survival. The method, boiled down:
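Mice with transplanted tumor dosed; survival/tumor size read; T/C vs vehicle controls.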

Where [1] appears, read: dose: 108.0 mg/kg/injection, schedule: Q01DX Z (sc), vehicle: methylcellulose (MC).
Where [2] appears, read: dose: 180.0 mg/kg/injection, schedule: Q01DX Z (sc), vehicle: methylcellulose (MC).

With `O=P1(N(CCCl)CCCl)NCCCO1` (stereo not given), the T/C by setting is: (dose: 6.25 mg/kg/injection, schedule: Q01DX009 (ip), vehicle: saline) 103 % of control; (dose: 6.25 mg/kg/injection, schedule: Q01DX009 (sc), vehicle: saline) 107 % of control; (dose: 12.5 mg/kg/injection, schedule: Q01DX009 (ip), vehicle: saline) 106 % of control and 107 % of control; (dose: 12.5 mg/kg/injection, schedule: Q01DX009 (sc), vehicle: saline) 110 % of control; (dose: 23.0 mg/kg/injection, schedule: Q01DX Z (sc), vehicle: saline) 210 % of control; (dose: 25.0 mg/kg/injection, schedule: Q01DX009 (ip), vehicle: saline) 151 % of control. Moreover, the T/C (dose: 39.0 mg/kg/injection, schedule: Q01DX Z (sc), vehicle: saline) is 221 % of control; the T/C (dose: 39.0 mg/kg/injection, schedule: Q08DX003 (ip), vehicle: none) was 118 % of control; the T/C (dose: 39.0 mg/kg/injection, schedule: Q08DX003 (sc), vehicle: saline) was 116 % of control; the T/C (dose: 50.0 mg/kg/injection, schedule: Q01DX009 (ip), vehicle: saline) was 165 % of control and 173 % of control and 177 % of control; the T/C (dose: 50.0 mg/kg/injection, schedule: Q01DX009 (sc), vehicle: saline) is 191 % of control; the T/C (dose: 65.0 mg/kg/injection, schedule: Q01DX Z (sc), vehicle: saline) was 236 % of control. In addition, the T/C (dose: 65.0 mg/kg/injection, schedule: Q07DX003 (ip), vehicle: saline) was 123 % of control; the T/C (dose: 65.0 mg/kg/injection, schedule: Q08DX003 (ip), vehicle: none) was 188 % of control; the T/C (dose: 65.0 mg/kg/injection, schedule: Q08DX003 (sc), vehicle: saline) is 172 % of control; the T/C (dose: 65.0 mg/kg/injection, schedule: Q## X Z (sc), vehicle: saline) was 215 % of control; the T/C (dose: 100.0 mg/kg/injection, schedule: Q01DX009 (ip), vehicle: saline) is 222 % of control and 247 % of control and 89 % of control; the T/C (dose: 100.0 mg/kg/injection, schedule: Q01DX009 (sc), vehicle: saline) is 259 % of control. In addition, the T/C (dose: 108.0 mg/kg/injection, schedule: Q01DX001 (sc), vehicle: saline) was 164 % of control and 166 % of control and 168 % of control; the T/C (dose: 108.0 mg/kg/injection, schedule: Q01DX Z (sc), vehicle: saline) is 189 % of control; the T/C (dose: 108.0 mg/kg/injection, schedule: Q07DX003 (ip), vehicle: saline) was 183 % of control; the T/C (dose: 108.0 mg/kg/injection, schedule: Q07DX003 (sc), vehicle: saline) was 211 % of control and 217 % of control; the T/C (dose: 108.0 mg/kg/injection, schedule: Q07DX Z (sc), vehicle: saline) was 226 % of control; the T/C (dose: 108.0 mg/kg/injection, schedule: Q08DX003 (ip), vehicle: none) was 241 % of control. Besides, the T/C (dose: 108.0 mg/kg/injection, schedule: Q08DX003 (sc), vehicle: saline) is 227 % of control; the T/C (dose: 108.0 mg/kg/injection, schedule: Q## X Z (sc), vehicle: saline) was 231 % of control; the T/C (dose: 180.0 mg/kg/injection, schedule: Q01DX001 (sc), vehicle: saline) is 197 % of control and 200 % of control (2×); the T/C (dose: 180.0 mg/kg/injection, schedule: Q01DX Z (sc), vehicle: saline) was 152 % of control; the T/C (dose: 180.0 mg/kg/injection, schedule: Q07DX003 (ip), vehicle: saline) was 274 % of control; the T/C (dose: 180.0 mg/kg/injection, schedule: Q07DX003 (sc), vehicle: saline) was 355 % of control and 373 % of control. The T/C (dose: 180.0 mg/kg/injection, schedule: Q07DX Z (sc), vehicle: saline) was 284 % of control; the T/C (dose: 180.0 mg/kg/injection, schedule: Q08DX003 (ip), vehicle: none) was 288 % of control; the T/C (dose: 180.0 mg/kg/injection, schedule: Q08DX003 (sc), vehicle: saline) is 283 % of control; the T/C (dose: 180.0 mg/kg/injection, schedule: Q## X Z (sc), vehicle: saline) is 263 % of control; the T/C (dose: 300.0 mg/kg/injection, schedule: Q01DX001 (sc), vehicle: saline) was 242 % of control and 244 % of control and 252 % of control; the T/C (dose: 300.0 mg/kg/injection, schedule: Q07DX003 (ip), vehicle: saline) was 274 % of control. Moreover, the T/C was 283 % of control and 296 % of control (dose: 300.0 mg/kg/injection, schedule: Q07DX003 (sc), vehicle: saline); 231 % of control (dose: 300.0 mg/kg/injection, schedule: Q07DX Z (sc), vehicle: saline); 222 % of control (dose: 300.0 mg/kg/injection, schedule: Q08DX003 (ip), vehicle: none); 205 % of control (dose: 300.0 mg/kg/injection, schedule: Q08DX003 (sc), vehicle: saline); 120 % of control and 221 % of control (dose: 500.0 mg/kg/injection, schedule: Q01DX001 (sc), vehicle: saline); 152 % of control (dose: 500.0 mg/kg/injection, schedule: Q## X Z (sc), vehicle: saline). Besides, the T/C (dose: 833.0 mg/kg/injection, schedule: Q01DX001 (sc), vehicle: saline) was 210 % of control and the T/C (dose: 833.0 mg/kg/injection, schedule: Q07DX Z (sc), vehicle: saline) is 157 % of control.

Turning to `COC(=O)C1(F)C(=O)NC(=O)NC1OC` (stereo not given), the T/C is 110 % of control (dose: 50.0 mg/kg/injection, schedule: Q01DX009 (ip), vehicle: Klucel (hydroxypropylcellulose) (HPC)); 120 % of control (dose: 100.0 mg/kg/injection, schedule: Q01DX009 (ip), vehicle: Klucel (hydroxypropylcellulose) (HPC)); 163 % of control (dose: 120.0 mg/kg/injection, schedule: Q01DX009 (ip), vehicle: Klucel (hydroxypropylcellulose) (HPC)); 159 % of control (dose: 200.0 mg/kg/injection, schedule: Q01DX009 (ip), vehicle: Klucel (hydroxypropylcellulose) (HPC)); 120 % of control (dose: 333.33 mg/kg/injection, schedule: Q01DX009 (ip), vehicle: Klucel (hydroxypropylcellulose) (HPC)); 105 % of control (dose: 400.0 mg/kg/injection, schedule: Q01DX009 (ip), vehicle: Klucel (hydroxypropylcellulose) (HPC)). Moreover, the T/C is, setting by setting: (dose: 555.56 mg/kg/injection, schedule: Q01DX009 (ip), vehicle: Klucel (hydroxypropylcellulose) (HPC)) 110 % of control; (dose: 800.0 mg/kg/injection, schedule: Q01DX009 (ip), vehicle: Klucel (hydroxypropylcellulose) (HPC)) 98 % of control.

Turning to `Clc1ccc(CSc2ncnc3nc[nH]c23)cc1`, the T/C runs as follows: (dose: 38.9 mg/kg/injection, schedule: Q01DX Z (sc), vehicle: methylcellulose (MC)) 100 % of control; (dose: 64.8 mg/kg/injection, schedule: Q01DX Z (sc), vehicle: methylcellulose (MC)) 100 % of control; under setting [1], 100 % of control; under setting [2], 100 % of control; (dose: 300.0 mg/kg/injection, schedule: Q01DX Z (sc), vehicle: methylcellulose (MC)) 100 % of control; (dose: 500.0 mg/kg/injection, schedule: Q01DX Z (sc), vehicle: methylcellulose (MC)) 104 % of control.

On to `Clc1ccc(CNc2ncnc3[nH]ncc23)cc1Cl`, for which the T/C by setting is: (dose: 8.4 mg/kg/injection, schedule: Q01DX Z (sc), vehicle: methylcellulose (MC)) 95 % of control; (dose: 14.0 mg/kg/injection, schedule: Q01DX Z (sc), vehicle: methylcellulose (MC)) 95 % of control; (dose: 23.0 mg/kg/injection, schedule: Q01DX Z (sc), vehicle: methylcellulose (MC)) 95 % of control; (dose: 39.0 mg/kg/injection, schedule: Q01DX Z (sc), vehicle: methylcellulose (MC)) 100 % of control; (dose: 65.0 mg/kg/injection, schedule: Q01DX Z (sc), vehicle: methylcellulose (MC)) 104 % of control; under setting [1], 114 % of control. In addition, the T/C under setting [2] was 104 % of control.
